From ChEMBL document CHEMBL1201862, “PubChem BioAssay data set” (2004)
Where “and” joins values, the source holds several entries; their conditions need not be identical. Equal entries are not always repeated.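 Grown in 96-well plates, cells were treated for 48 hours with each compound at five concentrations. Insufficient inhibition: endpoint recorded as highest concentration tested. At the GI50, growth is halved.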 Calls of active or inactive are those of the source. No stated cut-off is given here; in the data, active = GI50 up to about 1.1 µM and inactive = higher.

Experiments:
Assay in all cases: NCI tumour cell line growth inhibition, 48 h
[1] = tested on: SR
[2] = tested on: CAKI-1
[3] = tested on: MDA-MB-435
[4] = tested on: SK-MEL-2
[5] = tested on: DU-145
[6] = tested on: SF-268
[7] = tested on: TK-10
[8] = tested on: HOP-92
[9] = tested on: COLO 205
[10] = tested on: SNB-19
[11] = tested on: KM12
[12] = tested on: SK-OV-3
[13] = tested on: HCT-116
[14] = tested on: UACC-257
[15] = tested on: MDA-MB-231
[16] = tested on: LOX IMVI
[17] = tested on: NCI-H23
[18] = tested on: NCI/ADR-RES
[19] = tested on: MCF7
[20] = tested on: A498
[21] = tested on: MOLT-4
[22] = tested on: SF-295
[23] = tested on: SK-MEL-28
[24] = tested on: SK-MEL-5
[25] = tested on: T47D
[26] = tested on: OVCAR-3
[27] = tested on: Hs-578T
[28] = tested on: PC-3
[29] = tested on: SW-620
[30] = tested on: ACHN
[31] = tested on: EKVX
[32] = tested on: OVCAR-5
[33] = tested on: NCI-H522
[34] = tested on: OVCAR-4
[35] = tested on: HCT-15
[36] = tested on: M14
[37] = tested on: OVCAR-8
[38] = tested on: BT-549
[39] = tested on: IGROV-1
[40] = tested on: HCC 2998
[41] = tested on: UACC-62
[42] = tested on: A549
[43] = tested on: 786-0
[44] = tested on: SNB-75
[45] = tested on: RXF 393
[46] = tested on: U-251
[47] = tested on: MDA-N
[48] = tested on: Malme-3M
[49] = tested on: UO-31
[50] = tested on: CCRF-CEM
[51] = tested on: HT-29
[52] = tested on: HOP-62
[53] = tested on: SN12C
[54] = tested on: NCI-H226
[55] = tested on: SF-539
[56] = tested on: HL-60
[57] = tested on: K562
[58] = tested on: NCI-H460
[59] = tested on: RPMI-8226

Measured: GI50

CC(=O)N1N=C(N)CC1=O
inactive: [1] > 100 µM | [2] > 100 µM | [3] > 100 µM | [4] > 100 µM | [5] > 100 µM | [6] > 100 µM | [7] > 100 µM | [8] > 100 µM | [9] > 100 µM | [10] > 100 µM | [11] > 100 µM | [12] > 100 µM | [13] > 100 µM | [14] > 100 µM | [15] > 100 µM | [16] > 100 µM | [17] > 100 µM | [18] > 100 µM | [19] > 100 µM | [20] > 100 µM | [21] > 100 µM | [22] > 100 µM | [23] > 100 µM | [24] > 100 µM | [25] > 100 µM | [26] > 100 µM | [27] > 100 µM | [28] > 100 µM | [29] > 100 µM | [30] > 100 µM | [31] > 100 µM | [32] > 100 µM | [33] > 100 µM | [34] > 100 µM | [36] > 100 µM | [37] > 100 µM | [38] > 100 µM | [39] > 100 µM | [40] > 100 µM | [41] > 100 µM | [42] > 100 µM | [43] > 100 µM | [44] > 100 µM | [45] > 100 µM | [46] > 100 µM | [47] > 100 µM | [48] > 100 µM | [49] > 100 µM | [50] > 100 µM | [51] > 100 µM | [52] > 100 µM | [53] > 100 µM | [54] > 100 µM | [55] > 100 µM | [56] > 100 µM | [57] > 100 µM | [58] > 100 µM
> 100 µM: [35]

CCNCCCNc1c2ccccc2nc2ccccc12
inactive: [12] 1.33 µM | [38] 1.92 µM
active: [1] 0.285 µM | [2] 0.334 µM | [3] 0.479 µM | [4] 0.518 µM | [5] 0.525 µM | [6] 0.472 µM | [7] 0.571 µM | [8] 0.469 µM | [9] 0.232 µM | [10] 0.499 µM | [11] 0.396 µM | [13] 0.365 µM | [14] 0.424 µM | [15] 0.612 µM | [16] 0.251 µM | [17] 0.446 µM | [18] 0.916 µM | [19] 0.193 µM | [20] 0.631 µM | [21] 0.313 µM | [22] 0.498 µM | [23] 0.401 µM | [24] 0.375 µM | [25] 0.502 µM | [26] 0.326 µM | [27] 0.653 µM | [28] 0.245 µM | [29] 0.278 µM | [30] 0.136 µM | [31] 0.569 µM | [32] 0.278 µM | [33] 0.183 µM | [34] 0.478 µM | [36] 0.318 µM | [37] 0.349 µM | [39] 0.48 µM | [40] 0.239 µM | [41] 0.387 µM | [42] 0.64 µM | [43] 0.552 µM | [44] 0.234 µM | [45] 0.568 µM | [46] 0.435 µM | [47] 0.356 µM | [48] 0.406 µM | [49] 0.334 µM | [50] 0.514 µM | [51] 0.219 µM | [52] 0.402 µM | [53] 0.429 µM | [55] 0.279 µM | [56] 0.493 µM | [57] 0.329 µM | [58] 0.196 µM
0.366 µM: [35]

Cc1ccc(/C=C2/N/C(=N\N=C/C(O)C(O)C(O)C(O)CO)NC2=O)cc1 (stereo unspecified)
inactive: [1] > 100 µM | [2] > 100 µM | [3] > 100 µM | [4] > 100 µM | [5] > 100 µM | [6] > 100 µM | [7] > 100 µM | [8] > 100 µM | [9] > 100 µM | [10] > 100 µM | [11] > 100 µM | [12] > 100 µM | [13] > 100 µM | [14] > 100 µM | [15] > 100 µM | [16] > 100 µM | [17] > 100 µM | [18] > 100 µM | [19] > 100 µM | [20] > 100 µM | [22] > 100 µM | [23] > 100 µM | [24] > 100 µM | [25] > 100 µM and 99.1 µM | [26] > 100 µM | [27] > 100 µM | [28] > 100 µM | [29] > 100 µM | [30] > 100 µM | [31] > 100 µM | [32] > 100 µM | [33] > 100 µM | [36] > 100 µM | [37] > 100 µM | [38] > 100 µM | [39] > 100 µM | [40] > 100 µM | [42] > 100 µM | [43] > 100 µM | [59] > 100 µM | [44] > 100 µM | [45] > 100 µM | [46] > 100 µM | [47] > 100 µM | [48] > 100 µM | [49] > 100 µM | [50] 95.3 µM | [51] > 100 µM | [52] > 100 µM | [53] > 100 µM | [54] > 100 µM | [55] > 100 µM | [56] > 100 µM | [58] > 100 µM
> 100 µM and 69.8 µM: [35]

c1ccc(C(=NNc2cnc3ccccc3n2)c2ccccn2)cc1
0.424 µM: [35]
active: [1] 1.01 µM | [2] 0.382 µM | [9] 0.119 µM | [14] 0.418 µM | [15] 1 µM | [18] 0.494 µM | [19] 0.371 µM | [21] 0.139 µM | [25] 0.0188 µM | [26] 0.608 µM | [29] 0.423 µM | [30] 0.405 µM | [31] 0.269 µM | [33] 0.419 µM | [36] 0.425 µM | [37] 0.352 µM | [48] 0.532 µM | [49] 0.76 µM | [50] 0.208 µM | [51] 0.048 µM | [53] 0.991 µM | [56] 0.109 µM
inactive: [3] 3.96 µM | [4] 9.77 µM | [5] 3.3 µM | [6] 1.52 µM | [8] 5.6 µM | [10] 6.43 µM | [11] 4.08 µM | [12] 3.78 µM | [13] 1.76 µM | [17] 2.61 µM | [20] 20.9 µM | [22] 2.93 µM | [23] 12.3 µM | [24] 1.42 µM | [27] 12 µM | [28] 2.56 µM | [32] 2.59 µM | [34] 3.89 µM | [38] 8.18 µM | [39] 1.75 µM | [40] 4.41 µM | [41] 3 µM | [42] 3.15 µM | [43] 1.38 µM | [59] 2.02 µM | [44] 5.85 µM | [45] 7.59 µM | [46] 2.31 µM | [47] 9.64 µM | [52] 7.26 µM | [54] 4.9 µM | [55] 1.58 µM | [57] 1.2 µM | [58] 1.26 µM

CC(C)(C)OC(=O)CCC1NC(=O)[C@@H]2Cc3c([nH]c4ccccc34)C(c3ccccc3)N2C1=O (stereo partly specified)
inactive: [1] > 100 µM | [2] 29.2 µM | [3] 21.7 µM | [4] 21 µM | [5] 43.7 µM | [6] 24.7 µM | [7] 33.7 µM | [8] 27.9 µM | [9] 20.9 µM | [10] 34.3 µM | [11] 24.9 µM | [12] 29.6 µM | [13] 19.4 µM | [14] 21.7 µM | [15] 19.7 µM | [16] 18.8 µM | [17] 29.1 µM | [18] 35.5 µM | [19] 32.4 µM | [20] 36.2 µM | [21] > 100 µM | [22] 19.7 µM | [23] 44.5 µM | [24] 17.6 µM | [25] 27.8 µM | [26] 21.6 µM | [27] 16.7 µM | [28] 19.3 µM | [29] 41.7 µM | [30] 27.9 µM | [31] 36.6 µM | [32] 25.1 µM | [33] 25.2 µM | [34] 32.7 µM | [36] 25.9 µM | [37] 37.2 µM | [38] 28.6 µM | [39] 31.3 µM | [41] 17.7 µM | [42] 31.8 µM | [43] 30.6 µM | [59] 36.9 µM | [45] 18.2 µM | [46] 18.2 µM | [47] 19.8 µM | [48] 16.4 µM | [49] 29.4 µM | [51] 22.8 µM | [52] 24.2 µM | [53] 23.7 µM | [54] 30.4 µM | [56] 21.4 µM | [57] > 100 µM
33 µM: [35]
